Measurements from patent US20220105051A1, “COMPOUNDS FOR INCREASING MHC-I EXPRESSION AND MODULATING HISTONE DEACETYLASE ACTIVITY” (Cava Healthcare Inc., priority 2019, published 2022).
“Also recorded” adds a separate entry of the source.

Legend:
HDAC5 = molecular target: T1, HDAC5 (Homo sapiens, UniProt Q9UQL6); test: Individualized HDAC assay, HDAC5; format: biochemical; details: purified enzyme, 5 to 0.02 μM
T1 construct: purchased BPS Biosciences
Experimental: (§1) The activity of the curcuphenol analogues was assessed with purified HDAC enzymes from all classes I, II, and IV, as well as a select member of HDAC class III (SIRT1). HDACs 1-9 and SIRT1 were evaluated using HDAC Fluorogenic Assay Kits (BPS Biosciences). All assays were completed in black-sided clear-bottom 96 well plates (PerkinElmer), and all treatments were plated in triplicates. Treatment started at 5 μM and was two-fold diluted to a concentration 0.02 μM. The assays were measured using the Synergy HI hybrid reader (BioTek) and Gen5 software (BioTek), excitation was set to 360 nm and detection was measured at 450 nm with a gain of 100. Alternatively HDAC 10 and 11 (BPS Biosciences) were optimized for HDAC concentration using the HDAC-Glo™ I/II Assay and Screening System (Promega). Following optimization each HDAC was run following the Promega protocol in black-sided clear-bottomed 96 well plates in triplicates with same treatments listed above (PerkinElmer). Luminescence was read 30 minutes after HDAC-Glo™I/II reagent was added using the Synergy HI hybrid reader (BioTek) and Gen5 software (Bio-Tek). […] To calculate percent activity, the average of blank wells was subtracted from all treatment groups. The relative mean of activity of the HDAC being measured was determined and all wells that received treatment were divided this average, to give a percentage of activity.
(§2) To evaluate the effect of the compounds on specific HDACs, their activity was assessed with purified HDAC enzymes from all classes I, II, and IV, as well as a select member of HDAC class III (SIRT1). HDACs 1-9 and SIRT1 were evaluated using HDAC Fluorogenic Assay Kits (BPS Biosciences) following the manufacturer's recommendations. Compound treatment started at 5 μM and was two-fold diluted to a concentration 0.02 μM. Alternatively, HDAC 10 and 11 assays (BPS Biosciences) were optimized to be used with the HDAC-Glo™ I/II Assay and Screening System (Promega). The assays were measured using the Synergy HI hybrid reader (BioTek) and Gen5 software (Bio-Tek). […] To calculate the fold change in HDAC activity, the values from each treated well were divided by the relative mean of activity of the specific HDAC being measured.

Maximum tolerated dose = format: in vivo; details: for MTD at 14 days: female, C57BL/6, mouse, in vivo, ip, limited by solubility in 1% DMSO, read-out: highest maximum tolerated dose; for signs of toxicity (clinical signs, necropsy): i.p. 1.0, 3.5 and 5.2 mg/kg, 14 days, C57BL/6 mice
Experimental: British Columbia Cancer Agency (BCCA) completed the maximum tolerated dose study for compound P02-113, whereas P03-97-1 was assessed in-house following the same protocol. […]. The compounds were injected intraperitoneally (i.p.) at concentrations of 1.0 mg/kg (n=3), 3.5 mg/kg (n=3), or 5.2 mg/kg (n=3). These doses were based on the maximum solubility of the compounds that was determined using the known solubility of curcuphenol. Mice were assessed for clinical signs of toxicity for 14 days following injection. After 14 days the mice were euthanized and examined by necropsy, P02-113 was performed at BCCA, and P03-97-1 was performed by Animal Care Services located at the Center for Comparative Medicine on UBC Point Grey campus, Vancouver BC.
In vivo efficacy studies. Maximum tolerated dose (MTD). The maximum tolerated dose for the selected compounds, P02-113 and P03-97-1, were assessed in vivo. C57BI/6 mice were injected intraperitoneally (i.p.) with the test compounds at 3 different concentrations: 1.0 mg/kg (n=3), 3.5 mg/kg (n=3) and 5.2 mg/kg (n=3). Mice were then assessed for 14 days for clinical signs of toxicity and at the end point a necropsy was performed. […]

HDAC9 = molecular target: T2, HDAC9 (Homo sapiens, UniProt Q9UKV0); test: Individualized HDAC assay, HDAC9; format: biochemical; details: purified enzyme, 5 to 0.02 μM
T2 construct: purchased BPS Biosciences
T2 sequence (Q9UKV0 whole entry): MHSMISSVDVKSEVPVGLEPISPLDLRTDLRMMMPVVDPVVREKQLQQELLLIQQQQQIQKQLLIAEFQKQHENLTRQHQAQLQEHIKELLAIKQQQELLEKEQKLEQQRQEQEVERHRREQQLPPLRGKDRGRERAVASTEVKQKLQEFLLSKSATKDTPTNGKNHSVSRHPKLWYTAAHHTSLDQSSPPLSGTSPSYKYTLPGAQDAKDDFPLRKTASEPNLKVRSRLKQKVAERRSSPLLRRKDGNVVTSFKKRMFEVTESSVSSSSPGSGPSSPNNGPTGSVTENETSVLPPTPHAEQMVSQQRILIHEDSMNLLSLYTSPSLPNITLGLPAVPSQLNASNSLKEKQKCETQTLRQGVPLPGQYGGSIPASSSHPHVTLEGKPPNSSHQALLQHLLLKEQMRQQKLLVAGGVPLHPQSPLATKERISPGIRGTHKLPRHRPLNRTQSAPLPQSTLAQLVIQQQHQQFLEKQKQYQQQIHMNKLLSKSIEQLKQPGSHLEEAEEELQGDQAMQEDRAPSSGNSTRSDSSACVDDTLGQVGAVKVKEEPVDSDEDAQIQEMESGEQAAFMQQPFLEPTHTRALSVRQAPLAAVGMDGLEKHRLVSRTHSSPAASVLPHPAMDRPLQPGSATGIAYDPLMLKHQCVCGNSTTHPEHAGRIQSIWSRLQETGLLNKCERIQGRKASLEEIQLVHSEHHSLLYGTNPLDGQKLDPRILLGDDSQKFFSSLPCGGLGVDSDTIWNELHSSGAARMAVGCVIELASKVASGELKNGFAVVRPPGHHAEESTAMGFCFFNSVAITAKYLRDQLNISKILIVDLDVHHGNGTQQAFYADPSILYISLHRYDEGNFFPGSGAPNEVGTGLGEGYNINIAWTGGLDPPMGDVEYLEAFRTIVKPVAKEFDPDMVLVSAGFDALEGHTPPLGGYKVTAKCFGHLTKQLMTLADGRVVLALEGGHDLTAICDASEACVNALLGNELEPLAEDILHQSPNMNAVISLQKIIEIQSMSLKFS
Experimental: as §1
as §2, with “Alternatively, HDAC 10 and 11 assays (BPS Biosciences) were optimized to be used with the HDAC-Glo™ I/II Assay and Screening System (Promega).” left out

HDAC3 = molecular target: T3, HDAC3 (Homo sapiens, UniProt O15379); test: Individualized HDAC assay, HDAC3; format: biochemical; details: purified enzyme, 5 to 0.02 μM
T3 construct: purchased BPS Biosciences
T3 sequence (O15379 whole entry): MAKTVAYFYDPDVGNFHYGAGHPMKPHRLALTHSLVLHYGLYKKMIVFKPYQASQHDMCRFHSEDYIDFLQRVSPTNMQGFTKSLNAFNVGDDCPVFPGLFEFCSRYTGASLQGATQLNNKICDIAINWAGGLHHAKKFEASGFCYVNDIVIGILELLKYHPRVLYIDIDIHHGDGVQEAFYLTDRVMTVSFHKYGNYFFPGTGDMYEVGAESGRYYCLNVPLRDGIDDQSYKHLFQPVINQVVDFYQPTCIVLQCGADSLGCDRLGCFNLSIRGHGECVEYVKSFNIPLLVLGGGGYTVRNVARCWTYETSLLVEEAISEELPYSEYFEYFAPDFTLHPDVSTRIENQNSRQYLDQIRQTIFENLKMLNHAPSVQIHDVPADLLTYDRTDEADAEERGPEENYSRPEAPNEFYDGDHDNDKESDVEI
T3 sequence (Q9Y618 395-489 partner limits assumed): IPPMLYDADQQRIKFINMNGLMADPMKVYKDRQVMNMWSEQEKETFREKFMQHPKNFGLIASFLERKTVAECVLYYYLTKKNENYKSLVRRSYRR
Experimental: The activity of the curcuphenol analogues was assessed with purified HDAC enzymes from all classes I, II, and IV, as well as a select member of HDAC class III (SIRT1). HDACs 1-9 and SIRT1 were evaluated using HDAC Fluorogenic Assay Kits (BPS Biosciences). All assays were completed in black-sided clear-bottom 96 well plates (PerkinElmer), and all treatments were plated in triplicates. Treatment started at 5 μM and was two-fold diluted to a concentration 0.02 μM. The assays were measured using the Synergy HI hybrid reader (BioTek) and Gen5 software (BioTek), excitation was set to 360 nm and detection was measured at 450 nm with a gain of 100. […] Luminescence was read 30 minutes after HDAC-Glo™I/II reagent was added using the Synergy HI hybrid reader (BioTek) and Gen5 software (Bio-Tek). […] The relative mean of activity of the HDAC being measured was determined and all wells that received treatment were divided this average, to give a percentage of activity.
To evaluate the effect of the compounds on specific HDACs, their activity was assessed with purified HDAC enzymes from all classes I, II, and IV, as well as a select member of HDAC class III (SIRT1). HDACs 1-9 and SIRT1 were evaluated using HDAC Fluorogenic Assay Kits (BPS Biosciences) following the manufacturer's recommendations. […] The assays were measured using the Synergy HI hybrid reader (BioTek) and Gen5 software (Bio-Tek). […]

HDAC7 = molecular target: T4, HDAC7 (Homo sapiens, UniProt Q8WUI4); test: Individualized HDAC assay, HDAC7; format: biochemical; details: purified enzyme, 5 to 0.02 μM
T4 construct: purchased BPS Biosciences
T4 sequence (Q8WUI4 1-952): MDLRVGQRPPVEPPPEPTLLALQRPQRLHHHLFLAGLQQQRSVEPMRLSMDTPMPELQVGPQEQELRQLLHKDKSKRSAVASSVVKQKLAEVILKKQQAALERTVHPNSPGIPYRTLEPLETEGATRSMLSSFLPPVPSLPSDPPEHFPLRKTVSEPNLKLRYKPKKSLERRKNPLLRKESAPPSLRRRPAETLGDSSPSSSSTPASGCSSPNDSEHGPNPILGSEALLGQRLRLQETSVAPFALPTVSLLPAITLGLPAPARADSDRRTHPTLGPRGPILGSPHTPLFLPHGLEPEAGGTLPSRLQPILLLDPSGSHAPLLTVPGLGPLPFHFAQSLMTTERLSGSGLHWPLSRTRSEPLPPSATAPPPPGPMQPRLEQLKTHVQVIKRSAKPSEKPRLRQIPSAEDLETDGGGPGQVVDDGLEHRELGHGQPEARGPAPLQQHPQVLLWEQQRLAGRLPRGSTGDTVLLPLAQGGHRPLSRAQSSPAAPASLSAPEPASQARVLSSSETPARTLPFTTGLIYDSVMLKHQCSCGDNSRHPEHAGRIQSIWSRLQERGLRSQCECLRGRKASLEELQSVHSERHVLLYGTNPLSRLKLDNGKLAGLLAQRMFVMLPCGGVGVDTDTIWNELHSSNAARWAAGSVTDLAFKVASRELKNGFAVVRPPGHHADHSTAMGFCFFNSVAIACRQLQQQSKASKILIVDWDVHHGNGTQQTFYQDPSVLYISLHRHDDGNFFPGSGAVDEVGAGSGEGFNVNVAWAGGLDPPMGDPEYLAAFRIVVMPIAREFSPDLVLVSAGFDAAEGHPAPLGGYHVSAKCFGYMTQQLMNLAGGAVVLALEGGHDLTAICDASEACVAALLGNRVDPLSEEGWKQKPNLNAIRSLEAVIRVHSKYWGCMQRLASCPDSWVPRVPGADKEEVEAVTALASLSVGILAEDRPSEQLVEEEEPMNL
Experimental: as §1
as §2, with “Alternatively, HDAC 10 and 11 assays (BPS Biosciences) were optimized to be used with the HDAC-Glo™ I/II Assay and Screening System (Promega).” left out

T1 sequence (Q9UQL6 whole entry): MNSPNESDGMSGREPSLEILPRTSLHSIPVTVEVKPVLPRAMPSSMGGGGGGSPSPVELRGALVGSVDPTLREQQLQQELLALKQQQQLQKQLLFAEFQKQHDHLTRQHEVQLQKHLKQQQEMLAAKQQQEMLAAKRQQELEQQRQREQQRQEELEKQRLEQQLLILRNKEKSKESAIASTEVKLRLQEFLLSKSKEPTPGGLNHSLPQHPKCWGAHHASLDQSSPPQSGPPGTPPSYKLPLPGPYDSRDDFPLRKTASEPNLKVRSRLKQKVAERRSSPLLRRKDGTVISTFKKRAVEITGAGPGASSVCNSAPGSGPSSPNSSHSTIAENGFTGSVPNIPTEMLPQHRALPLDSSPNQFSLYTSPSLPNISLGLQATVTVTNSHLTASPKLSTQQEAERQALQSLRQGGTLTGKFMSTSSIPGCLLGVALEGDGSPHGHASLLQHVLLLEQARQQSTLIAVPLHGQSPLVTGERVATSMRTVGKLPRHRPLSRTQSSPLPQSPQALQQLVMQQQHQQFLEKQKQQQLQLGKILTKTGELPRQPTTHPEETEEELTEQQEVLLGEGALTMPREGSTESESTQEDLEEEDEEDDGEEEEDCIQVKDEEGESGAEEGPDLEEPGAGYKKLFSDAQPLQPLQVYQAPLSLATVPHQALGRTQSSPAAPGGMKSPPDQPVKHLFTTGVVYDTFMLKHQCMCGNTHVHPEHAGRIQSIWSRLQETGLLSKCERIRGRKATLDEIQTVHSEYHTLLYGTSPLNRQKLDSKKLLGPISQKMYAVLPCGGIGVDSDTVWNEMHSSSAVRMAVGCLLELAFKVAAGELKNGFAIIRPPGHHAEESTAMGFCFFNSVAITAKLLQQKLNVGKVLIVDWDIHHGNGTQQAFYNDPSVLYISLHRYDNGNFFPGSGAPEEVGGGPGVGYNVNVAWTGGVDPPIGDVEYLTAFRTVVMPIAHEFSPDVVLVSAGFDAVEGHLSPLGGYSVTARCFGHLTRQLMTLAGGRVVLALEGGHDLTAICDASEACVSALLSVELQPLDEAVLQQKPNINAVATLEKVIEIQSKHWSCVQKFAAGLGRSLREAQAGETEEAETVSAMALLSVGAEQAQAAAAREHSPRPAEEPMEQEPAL

| SMILES | HDAC5 activity (HDAC5) | MTD at 14 days (Maximum tolerated dose) [mg/kg] | signs of toxicity (clinical signs, necropsy) (Maximum tolerated dose) | HDAC9 activity (HDAC9) | HDAC3 activity (HDAC3) | HDAC7 activity (HDAC7) | HDAC9 activity (HDAC9; listed as PO-3-97-1) | HDAC5 activity (HDAC5; listed as PO-3-97-1) | HDAC7 activity (HDAC7; listed as PO-3-97-1) |
| --- | --- | --- | --- | --- | --- | --- | --- | --- | --- |
| CC(C)=CCC[C@H](C)c1ccc(C)cc1O [Curcuphenol, curcuphenol] | activates | – | – | – | – | – | – | – | – |
| CC(C)=CCCCc1ccc(C)cc1O [P02-113] | enhanced; also recorded: increase in activity levels | 5.2 | no signs of toxicity or abnormalities; also recorded: no adverse drug effects | no change in activity; also recorded: did not affect the activity; also recorded: unaffected | no significant change in HDAC activity | no change in activity; also recorded: did not affect the activity; also recorded: unaffected | – | – | – |
| COc1ccc(C(C)CCC=C(C)C)c(O)c1 (stereo not shown) [P03-97-1] | enhanced; also recorded: increase in activity levels | 5.2 | no signs of toxicity or abnormalities; also recorded: no adverse drug effects | no change in activity; also recorded: unaffected | no significant change in HDAC activity | no change in activity; also recorded: unaffected | did not affect the activity | enhanced | did not affect the activity |
